The text below walks through data of patent US20120129781A1, “COMPOSITION COMPRISING ALPHA-LIPOIC ACID AND CARNOSINE FOR TREATING THE PHANTOM LIMB SYNDROME” (DIFASS INTERNATIONAL S.R.L., priority 2009, published 2012).

In one test the test system is phantom limb syndrome. Kind of test: Two-month daily oral treatment of lower-limb amputee patients affected by phantom limb syndrome (ASIS, VAS, McGill Pain Questionnaire, QoL at t0, 30 and 60 days). It is filed as in vivo. The conditions noted are these: lower-limb amputees, daily oral uptake for two months, evaluated at t0, 30 and 60 days. An excerpt:
In order not to negatively influence the test, it was decided not to include the following in such groups: diabetic patients (in order to avoid interferences with the symptoms of diabetic neuropathy and with the drugs used by the diabetic patient), subjects with psychiatric pathologies also at a compensation stage, subjects with serious cognitive deficits, subjects affected by active hepatic and/or renal pathologies, subjects with organ pathologies and/or other serious comorbidities.
Group A (reference) was subdivided into two uniform groups A1 and A2; group A1 was subjected to a conventional treatment, orally taking for two months a daily dosage amount of the neuromodulator Gabapentin, a known anti-epileptic drug with indications in the treatment of neuropathic pain, as described in US patent application publication No. US 2006/159743. Group A2 was subjected to the same treatment, substituting the neuromodulator Gabapentin with the analogous neuromodulator Pregabalin.
Groups B and C were subjected, during the same two-month period, to a daily uptake of the composition 1 and, respectively, 2 of the present invention, in the same daily dosage amount of 1,200 mg.
This text is aimed at investigating how an amputee perceives their own body image. It is constituted by 20 points; the subjects are asked to indicate their answer by using a scale from 1 (never) to 5 (always). […]

A further test concerns phantom limb pain. The conditions noted are these: literature reports (Smith et al. 2005; Bergmans et al. 2002); cited from earlier work.

For the molecule `CC(C)C[C@H](CN)CC(=O)O` [pregabalin], in the test with phantom limb syndrome, the “phantom limb pain and stump pain (VAS and McGill Pain Questionnaire)” value is recorded as “only experienced a certain decrease of the pain”; the “phantom limb sensation (sensation of possession of the missing limb, ASIS Amputee Body Image Scale)” value is “did not receive any benefit”.

Take `CCC(=O)C(CC(C)N(C)C)(c1ccccc1)c1ccccc1` (stereo not drawn) [methadone]: the “effect on phantom limb pain (literature)” value in the test with phantom limb pain is “effective reduction of the phantom limb pain”.
